A short description of this test: Patient diary of bowel movements after laxative use. It counts as in vivo, human. The source says:
In patient tolerance studies described herein, treatment groups received an osmotic purgative on the evening before colonoscopy in split doses. Comparisons were made between the results of these osmotic purgatives. Also, a comparison was made between patients treated with osmotic purgative alone, and patients treated initially with stimulant laxative followed by osmotic purgative. Table III provides a summary of data gathered from diaries that were kept by 100 patients as they progressed through a colon cleansing regimen. Each patient recorded the time of the first and last bowel movement following consumption of a laxative, as well as the total number of bowel movements associated with consumption of a particular laxative.

The mark [1] stands for this setting: 10 mg taken 2 nights before colonoscopy (e.g. at suppertime).
[2] abbreviates: 10 mg taken 3 nights before colonoscopy (e.g. at suppertime).

For the compound `CC(=O)Oc1ccc(C(c2ccc(OC(C)=O)cc2)c2ccccn2)cc1` [Bisacodyl, bisacodyl], under setting [1], the “Mean time to first BM ± standard deviation” value is on record as 8.6 ± 5.3 h, the “Mean time to last BM ± standard deviation” value worked out at 16.5 ± 5.3 h and the “Total number BM ± standard deviation” value turned out to be 3.8 ± 2. Besides, under setting [2], the “Mean time to first BM ± standard deviation” value was found to be 8.9 ± 5.1 h, the “Mean time to last BM ± standard deviation” value is 16.5 ± 5.1 h and the “Total number BM ± standard deviation” value came to 3.4 ± 2.

(Values after patent US20110076339A1, “Colon Cleansing Method and Kit” (Kingston General Hospital, priority 2008, published 2011).)
